Here are results for 21 compounds from US20240199605A1, “SMALL MOLECULAR INHIBITORS OF NF-kB INDUCING KINASE” (Janssen Pharmaceutica NV, priority 2019, published 2024).

The structures appear in SMILES notation. Like-named read-outs stand apart in the source and are kept apart here.

Assay [1] addresses recombinant human NF-kappaB-inducing kinase (NIK/MAP3K14) (Homo sapiens (Human), UniProt Q99558). Kind of assay: Inhibition of auto-phosphorylation of recombinant human NIK/MAP3K14 (AlphaScreen). It is filed as biochemical. The conditions noted are these: NIK auto-phosphorylation, 5 μM ATP, 1 nM NIK, 2 h at 25° C.; average of values. In outline:
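GST-tagged NIK (1 nM) auto-phosphorylated with 5 μM ATP for 2 h at 25° C. in 50 mM Tris pH 7.5, 5 mM MgCl2, 1 mM EGTA, 1 mM DTT, 0.1 mM Na3VO4, 0.01% Tween 20 (0.7% DMSO). Detected by AlphaScreen via anti-phospho-IKK Ser176/180 antibody; IC50 from sigmoidal fit of % inhibition versus log concentration.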

In assay [2] the test system is p-IKKα levels in L363 (NIK translocated multiple myeloma) cells. The experiment in a line: Effect of compounds on p-IKKα levels in L363 cells (AlphaLISA SureFire Ultra). It is filed as cell-based, human. The conditions noted are these: BAFF stimulated, MG132, 6 h, average of values, read-out: Assay 2 IC50. The method in brief:
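Inhibition of p-IKKα (Ser176/180) read by AlphaLISA after 6 h, 37 °C compound exposure (11-point 1:3 series, 0.3% DMSO) of L363 cells pre-incubated overnight ± 250 ng/ml BAFF and plated ± BAFF ± 10 μM MG132. Normalised to BAFF/MG132/DMSO and unstimulated controls; IC50 by sigmoidal fitting, duplicates.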

Chain of recombinant human NF-kappaB-inducing kinase (NIK/MAP3K14) (Q99558 whole entry): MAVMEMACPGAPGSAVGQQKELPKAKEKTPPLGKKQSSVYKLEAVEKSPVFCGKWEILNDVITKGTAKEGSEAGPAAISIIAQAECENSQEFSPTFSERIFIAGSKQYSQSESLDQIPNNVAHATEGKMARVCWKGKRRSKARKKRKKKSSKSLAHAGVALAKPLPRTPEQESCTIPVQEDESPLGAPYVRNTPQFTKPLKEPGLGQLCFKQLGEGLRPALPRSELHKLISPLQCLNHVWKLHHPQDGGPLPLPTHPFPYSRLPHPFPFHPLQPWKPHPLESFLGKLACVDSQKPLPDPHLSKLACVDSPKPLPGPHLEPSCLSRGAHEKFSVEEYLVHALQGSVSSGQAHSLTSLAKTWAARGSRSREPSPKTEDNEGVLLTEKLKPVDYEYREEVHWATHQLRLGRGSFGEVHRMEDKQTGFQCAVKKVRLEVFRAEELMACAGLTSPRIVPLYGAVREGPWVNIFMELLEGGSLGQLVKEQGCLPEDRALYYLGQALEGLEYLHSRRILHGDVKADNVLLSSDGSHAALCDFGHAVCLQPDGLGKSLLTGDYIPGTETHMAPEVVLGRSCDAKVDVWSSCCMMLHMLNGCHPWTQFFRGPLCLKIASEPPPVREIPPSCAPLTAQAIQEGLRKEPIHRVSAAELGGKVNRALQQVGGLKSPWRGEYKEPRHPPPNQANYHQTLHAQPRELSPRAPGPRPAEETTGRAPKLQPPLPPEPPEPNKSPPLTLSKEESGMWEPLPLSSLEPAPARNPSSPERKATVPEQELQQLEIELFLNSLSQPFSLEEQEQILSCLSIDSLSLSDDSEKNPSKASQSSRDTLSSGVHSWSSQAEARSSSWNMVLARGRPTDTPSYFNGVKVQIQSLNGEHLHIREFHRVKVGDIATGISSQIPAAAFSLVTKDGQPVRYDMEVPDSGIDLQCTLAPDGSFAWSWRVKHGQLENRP

As for `CN1CC[C@@](O)(C#Cc2cccc(-c3cc(C4CCOCC4)c4ncnc(N)c4n3)c2)C1=O` [Example 255, (R)-3-((3-(4-Amino-8-(tetrahydro-2H-pyran-4-yl)pyrido[3,2-d]pyrimidin-6-yl)phenyl)ethynyl)-3-hydroxy-1-methylpyrrolidin-2-one], the IC50 – broadly, the concentration that gives 50% inhibition – in assay [1] came to 0.7 nM; in assay [2] (Homo sapiens, L-363, 6 h) it was 15 nM.

Turning to `CN1CC[C@@](O)(C#Cc2cccc(-c3ccc4ncnc(N5CC(S(C)(=O)=O)C5)c4n3)c2)C1=O` [Example 245, (R)-3-Hydroxy-1-methyl-3-((3-(4-(3-(methylsulfonyl)azetidin-1-yl)pyrido[3,2-d]pyrimidin-6-yl)phenyl)ethynyl)pyrrolidin-2-one], the IC50 in assay [1] came to 40 nM; in assay [2] (Homo sapiens, L-363, 6 h) it was 1190 nM.

Consider `CN1CC[C@@](O)(C#Cc2cccc(-c3ncc4ccnc(N)c4n3)c2)C1=O` [Example 1, (R)-3-[2-[3-(8-Aminopyrido[3,4-d]pyrimidin-2-yl)phenyl]ethynyl]-3-hydroxy-1-methyl-pyrrolidin-2-one], for which the IC50 in assay [1] was at most 0.5 nM; in assay [2] (Homo sapiens, L-363, 6 h) it was 3.7 nM.

On to `[2H]C([2H])([2H])N1CC[C@@](O)(C#Cc2cccc(-c3ccc4nc(CF)nc(N)c4n3)c2)C1=O` [Example 208, (R)-3-((3-(4-Amino-2-(fluoromethyl)pyrido[3,2-d]pyrimidin-6-yl)phenyl)ethynyl)-3-hydroxy-1-(methyl-d3)pyrrolidin-2-one], for which the concentration for half-maximal inhibition (IC50) was at most 0.5 nM in assay [1] and 12 nM in assay [2] (Homo sapiens, L-363, 6 h).

As for `Cc1nc(N)c2nc(-c3cccc(C#C[C@](C)(O)c4cnc(C)s4)c3)ccc2n1` [Example 157, (S)-4-(3-(4-Amino-2-methylpyrido[3,2-d]pyrimidin-6-yl)phenyl)-2-(2-methylthiazol-5-yl)but-3-yn-2-ol], the IC50 in assay [1] was 3790 nM; in assay [2] (Homo sapiens, L-363, 6 h), above 5000 nM.

For the compound `CN1CC[C@@](O)(C#Cc2cccc(-c3cc(OC(F)F)c4ncnc(N)c4n3)c2)C1=O` [Example 299, (R)-3-[2-[3-[4-Amino-8-(difluoromethoxy)pyrido[3,2-d]pyrimidin-6-yl]phenyl]ethynyl]-3-hydroxy-1-methyl-pyrrolidin-2-one], the IC50 worked out at 1.7 nM in assay [1] and 12 nM in assay [2] (Homo sapiens, L-363, 6 h).

`Cc1nc(N)c2nc(-c3cccc(C#C[C@@]4(O)C[C@@H](C)N(C)C4=O)c3)ccc2n1` [Example 267, (3S,5R)-3-((3-(4-Amino-2-methylpyrido[3,2-d]pyrimidin-6-yl)phenyl)ethynyl)-3-hydroxy-1,5-dimethylpyrrolidin-2-one]: the IC50 in assay [1] amounted to 385 nM; in assay [2] (Homo sapiens, L-363, 6 h), 2820 nM.

As to `CN1CC[C@@](O)(C#Cc2cccc(-c3cc(N4CCC4)c4ncnc(N)c4n3)c2)C1=O` [Example 316, (R)-3-[2-[3-[4-Amino-8-(azetidin-1-yl)pyrido[3,2-d]pyrimidin-6-yl]phenyl]ethynyl]-3-hydroxy-1-methyl-pyrrolidin-2-one], the IC50 in assay [1] came out at 0.9 nM; in assay [2] (Homo sapiens, L-363, 6 h) it was 9.5 nM.

Regarding `Cc1nc(N)c2nc(-c3cccc(C#C[C@](C)(O)c4scnc4C)c3)ccc2n1` [Example 162, (S)-4-(3-(4-Amino-2-methylpyrido[3,2-d]pyrimidin-6-yl)phenyl)-2-(4-methylthiazol-5-yl)but-3-yn-2-ol], the IC50 in assay [1] was above 5000 nM; in assay [2] (Homo sapiens, L-363, 6 h) it was above 5000 nM.

Turning to `Nc1ncnc2cnc(-c3cccc(C#C[C@@]4(O)CCc5cccnc54)c3)nc12` [Example 155, (S)-7-((3-(8-Aminopyrimido[5,4-d]pyrimidin-2-yl)phenyl)ethynyl)-6,7-dihydro-5H-cyclopenta[b]pyridin-7-ol], the IC50 was at most 0.5 nM in assay [1] and 6.1 nM in assay [2] (Homo sapiens, L-363, 6 h).

`Cc1nc(N)c2nc(-c3cccc(C#C[C@]4(O)C(=O)N(C)C[C@@H]4C)c3)ccc2n1` (stereo in doubt) [Example 293, (3S,4S*)-3-((3-(4-Amino-2-methylpyrido[3,2-d]pyrimidin-6-yl)phenyl)ethynyl)-3-hydroxy-1,4-dimethylpyrrolidin-2-one]: the 50% inhibitory concentration (IC50) in assay [1] is above 5000 nM; in assay [2] (Homo sapiens, L-363, 6 h) it was above 5000 nM.

As to `[2H]C([2H])([2H])N1CC[C@@](O)(C#Cc2ccc(C)c(-c3ccc4ccnc(N)c4c3)c2)C1=O` [Example 70, (R)-3-[2-[3-(1-Amino-7-isoquinolyl)-4-methyl-phenyl]ethynyl]-3-hydroxy-1-(trideuteriomethyl)pyrrolidin-2-one], the half-inhibitory concentration (IC50) in assay [1] turned out to be 26 nM; in assay [2], 2210 nM.

`[2H]C([2H])([2H])N1CC[C@@](O)(C#Cc2ccc(C)c(-c3nc4c(N)ncnc4s3)c2)C1=O` [Example 216, (R)-3-[2-[3-(7-Aminothiazolo[5,4-d]pyrimidin-2-yl)-4-methyl-phenyl]ethynyl]-3-hydroxy-1-(trideuteriomethyl)pyrrolidin-2-one]: the half-inhibitory concentration (IC50) is at most 0.5 nM in assay [1] and 8.5 nM in assay [2] (Homo sapiens, L-363, 6 h).

For `CN1CC[C@@](O)(C#Cc2cccc(-c3cc(N(C)C)c4ncnc(N)c4n3)c2)C1=O` [Example 295, (R)-3-[2-[3-[4-Amino-8-(dimethylamino)pyrido[3,2-d]pyrimidin-6-yl]phenyl]ethynyl]-3-hydroxy-1-methyl-pyrrolidin-2-one], the 50% inhibitory concentration (IC50) was 3.1 nM in assay [1] and 18 nM in assay [2] (Homo sapiens, L-363, 6 h).

For `Cc1cc([C@](C)(O)C#Cc2ccc(C)c(-c3ncc4ccnc(N)c4n3)c2)no1` [Example 82, (R)-4-(3-(8-Aminopyrido[3,4-d]pyrimidin-2-yl)-4-methylphenyl)-2-(5-methylisoxazol-3-yl)but-3-yn-2-ol], the IC50 in assay [1] amounted to 31 nM; in assay [2] (Homo sapiens, L-363, 6 h) it was 2000 nM.

With `Cc1ccc(C#C[C@]2(O)CCn3ccnc32)cc1-c1ccc2ccnc(N)c2c1` [Example 81, (R)-7-[2-[3-(1-Amino-7-isoquinolyl)-4-methyl-phenyl]ethynyl]-5,6-dihydropyrrolo[1,2-a]imidazol-7-ol], the IC50 in assay [1] turned out to be 11 nM; in assay [2] (Homo sapiens, L-363, 6 h) it was 1980 nM.

Turning to `Cc1nc(N)c2nc(-c3cccc(C#C[C@@](C)(O)c4ncc(C)s4)c3)ccc2n1` [Example 167, (R)-4-(3-(4-Amino-2-methylpyrido[3,2-d]pyrimidin-6-yl)phenyl)-2-(5-methylthiazol-2-yl)but-3-yn-2-ol], the IC50 turned out to be 12 nM in assay [1] and 3470 nM in assay [2] (Homo sapiens, L-363, 6 h).

As for `CN1CC[C@@](O)(C#Cc2cccc(-c3ccc4nc(F)nc(N)c4n3)c2)C1=O` [Example 288, (R)-3-((3-(4-Amino-2-fluoropyrido[3,2-d]pyrimidin-6-yl)phenyl)ethynyl)-3-hydroxy-1-methylpyrrolidin-2-one], the half-inhibitory concentration (IC50) is 0.9 nM in assay [1] and 16 nM in assay [2] (Homo sapiens, L-363, 6 h).

As to `CCc1cnc(N)c2nc(-c3cccc(C#C[C@]4(O)CCN(C)C4=O)c3)ncc12` [Example 129, (R)-3-((3-(8-Amino-5-ethylpyrido[3,4-d]pyrimidin-2-yl)phenyl)ethynyl)-3-hydroxy-1-methylpyrrolidin-2-one], the IC50 in assay [1] was at most 0.5 nM; in assay [2] (Homo sapiens, L-363, 6 h) it was 12 nM.

In the case of `Nc1nccc2cnc(-c3cccc(C#CC4(O)CCCC4)c3)nc12` [Example 33, 1-[2-[3-(8-Aminopyrido[3,4-d]pyrimidin-2-yl)phenyl]ethynyl]cyclopentanol], the IC50 in assay [1] worked out at 4.5 nM; in assay [2] (Homo sapiens, L-363, 6 h), 620 nM.

As for `CNc1nc(-c2cccc(C#C[C@]3(O)CCN(C)C3=O)c2)nc2c(N)nccc12` [Example 85, (R)-3-((3-(8-Amino-4-(methylamino)pyrido[3,4-d]pyrimidin-2-yl)phenyl)ethynyl)-3-hydroxy-1-methylpyrrolidin-2-one], the half-inhibitory concentration (IC50) was determined as 0.7 nM in assay [1] and 6.1 nM in assay [2] (Homo sapiens, L-363, 6 h).
